Data published in patent publication US4476120A, “Thiolic derivatives of erythromycin having therapeutic activity, and pharmaceutical compositions containing them” (Sigma Tau Indistrie Farmaceutiche Riunites, p.A, priority 1982, dated 1984).
Values after ≈ are worked out from the molar mass of the structure shown. Counter-ions that a name gives are not always drawn. Like-named read-outs stand apart in the source and are kept apart here.

How the values were obtained:
[1] = tested on: Staph. albus SS 03; assay type: cell-based; settings: Brain Heart Infusion, estolate and RV11-RV15 previously hydrolized, unit assumed
[2] = tested on: Staph. albus SS 04; assay type: cell-based; settings: Brain Heart Infusion, estolate and RV11-RV15 previously hydrolized, unit assumed
[3] = tested on: Staph. aureus SS 07; assay type: cell-based; settings: Brain Heart Infusion, estolate and RV11-RV15 previously hydrolized, unit assumed
[4] = tested on: Staph. aureus SS 08; assay type: cell-based; settings: Brain Heart Infusion, estolate and RV11-RV15 previously hydrolized, unit assumed
[5] = tested on: Staph. aureus SS 09; assay type: cell-based; settings: Brain Heart Infusion, estolate and RV11-RV15 previously hydrolized, unit assumed
[6] = tested on: Strept. haemolyticus SS 17; assay type: cell-based; settings: Brain Heart Infusion, estolate and RV11-RV15 previously hydrolized, unit assumed
[7] = tested on: Strept. haemolyticus SS 18; assay type: cell-based; settings: Brain Heart Infusion, estolate and RV11-RV15 previously hydrolized, unit assumed
[8] = tested on: Strept. faecalis SS 19; assay type: cell-based; settings: Brain Heart Infusion, estolate and RV11-RV15 previously hydrolized, unit assumed
[9] = tested on: S. lutea ATCC 9341; assay type: cell-based; settings: Brain Heart Infusion, estolate and RV11-RV15 previously hydrolized, unit assumed
[10] = tested on: B. subtilis ATCC 6633; assay type: cell-based; settings: Brain Heart Infusion, estolate and RV11-RV15 previously hydrolized, unit assumed
[11] = tested on: B. subtilis SS 127; assay type: cell-based; settings: Brain Heart Infusion, estolate and RV11-RV15 previously hydrolized, unit assumed
[12] = tested on: B. cereus ATCC 11778; assay type: cell-based; settings: Brain Heart Infusion, estolate and RV11-RV15 previously hydrolized, unit assumed
[13] = tested on: B. anthranis SS 08; assay type: cell-based; settings: Brain Heart Infusion, estolate and RV11-RV15 previously hydrolized, unit assumed
[14] = tested on: Br. melitensis SS 19; assay type: cell-based; settings: unit assumed
[15] = tested on: Br. abortus SS 7; assay type: cell-based; settings: Brain Heart Infusion, estolate and RV11-RV15 previously hydrolized, unit assumed
[16] = tested on: Citrobacter SS 05; assay type: cell-based; settings: Brain Heart Infusion, estolate and RV11-RV15 previously hydrolized, unit assumed
[17] = tested on: Citrobacter SS 09; assay type: cell-based; settings: Brain Heart Infusion, estolate and RV11-RV15 previously hydrolized, unit assumed
[18] = tested on: S. infantis SS 08; assay type: cell-based; settings: Brain Heart Infusion, estolate and RV11-RV15 previously hydrolized, unit assumed
[19] = tested on: S. heidelberg SS 18; assay type: cell-based; settings: Brain Heart Infusion, estolate and RV11-RV15 previously hydrolized, unit assumed
[20] = tested on: E. cloacae SS 07; assay type: cell-based; settings: Brain Heart Infusion, estolate and RV11-RV15 previously hydrolized, unit assumed
[21] = tested on: E. aerogenes SS 011; assay type: cell-based; settings: Brain Heart Infusion, estolate and RV11-RV15 previously hydrolized, unit assumed
[22] = tested on: Ps. aeruginosa SS 10; assay type: cell-based; settings: Brain Heart Infusion, estolate and RV11-RV15 previously hydrolized, unit assumed
[23] = tested on: E. coli SS 04; assay type: cell-based; settings: Brain Heart Infusion, estolate and RV11-RV15 previously hydrolized, unit assumed
[24] = tested on: E. coli SS 05; assay type: cell-based; settings: Brain Heart Infusion, estolate and RV11-RV15 previously hydrolized, unit assumed
[25] = tested on: E. coli SS 06; assay type: cell-based; settings: Brain Heart Infusion, estolate and RV11-RV15 previously hydrolized, unit assumed
[26] = tested on: E. coli SS 07; assay type: cell-based; settings: Brain Heart Infusion, estolate and RV11-RV15 previously hydrolized, unit assumed
[27] = tested on: Pr. mirabilis SS 09; assay type: cell-based; settings: Brain Heart Infusion, estolate and RV11-RV15 previously hydrolized, unit assumed
[28] = tested on: Pr. vulgaris SS 10; assay type: cell-based; settings: Brain Heart Infusion, estolate and RV11-RV15 previously hydrolized, unit assumed
[29] = tested on: Kl. aerogenes SS 71; assay type: cell-based; settings: Brain Heart Infusion, estolate and RV11-RV15 previously hydrolized, unit assumed
[30] = tested on: H. tubercolosis SS 03; assay type: cell-based; settings: Brain Heart Infusion, estolate and RV11-RV15 previously hydrolized, unit assumed
Excerpt: (§1) In the following table I the MIC/ml values are indicated corresponding to the lowest concentration capable of inducing a complete inhibition of the bacterial development.

[31] = tested on: Kl. pneumoniae SS 04; assay type: cell-based; settings: Brain Heart Infusion, estolate and RV11-RV15 previously hydrolized, unit assumed
Excerpt: as §1

[32] = tested on: Sr. marcescens SS 03; assay type: cell-based; settings: Brain Heart Infusion, estolate and RV11-RV15 previously hydrolized, unit assumed
[33] = tested on: C. diphtheriae SS 19; assay type: cell-based; settings: Brain Heart Infusion, estolate and RV11-RV15 previously hydrolized, unit assumed
[34] = tested on: D. pneumoniae SS 23; assay type: cell-based; settings: Brain Heart Infusion, estolate and RV11-RV15 previously hydrolized, unit assumed
[35] = tested on: N. gonorreae SS 27; assay type: cell-based; settings: Brain Heart Infusion, estolate and RV11-RV15 previously hydrolized, unit assumed
[36] = tested on: N. meningitidis SS 04; assay type: cell-based; settings: Brain Heart Infusion, estolate and RV11-RV15 previously hydrolized, unit assumed
[37] = tested on: H. influentiae SS 02; assay type: cell-based; settings: Brain Heart Infusion, estolate and RV11-RV15 previously hydrolized, unit assumed
[38] = tested on: H. pertussis SS 03; assay type: cell-based; settings: Brain Heart Infusion, estolate and RV11-RV15 previously hydrolized, unit assumed
[39] = tested on: C. albicans SS 04; assay type: cell-based; settings: Brain Heart Infusion, estolate and RV11-RV15 previously hydrolized, unit assumed
[40] = tested on: Cl. tetani SS 17; assay type: cell-based; settings: Brain Heart Infusion, estolate and RV11-RV15 previously hydrolized, unit assumed
[41] = tested on: B. anthranis SS 09; assay type: cell-based; settings: B. anthranis SS 09 (14 bis); Brain Heart Infusion; estolate and RV11-RV15 previously hydrolized; unit assumed
[42] = Acute toxicity; assay type: in vivo; settings: mouse, in vivo
Protocol: The acute toxicity was assessed in Swiss white mice by oral and intravenous route. The LD50 values have been calculated by the methods of Probits, starting from the mortality recorded 10 days after the treatment.

[43] = tested on: D. pneumoniae SS 23; experiment: Experimental infection induced by D. pneumoniae SS 23; assay type: in vivo, Swiss white mice
Protocol: (§2) Swiss white mice of 20 g body weight were used, infected by parenteral administration of lethal amounts of pathogenic […] of Staph. aureus SS 07 and D. pneumoniae SS 23.
(§3) The antibiotics were administered at the time of injecting the infecting germ and 6 and 24 hours later. On the basis of the survival after 7 days, the ED50 values were determined, as reported in the following table II and III, wherein the reliability limits are indicated in brackets.

[44] = Hematic levels in the healthy volunteer; assay type: in vivo, healthy volunteers; settings: oral, 500 mg of erythromycin, average
Excerpt: For the dosing, the microbiological method using a B. subtilis strain was adopted.

[45] = Mucolytic activity: obstruction of the bronchial tract after SO2 inhalation; assay type: in vivo, Sprague Dawley male rats; settings: SO2, 15 days
[46] = Histological examination of bronchi after SO2 inhalation; assay type: in vivo, Sprague Dawley male rats
[47] = in vivo; for Hematic levels in the rat: po, 100 mg/kg
[48] = tested on: Staph. aureus SS 07; experiment: Experimental infection induced by Staph. aureus SS 07; assay type: in vivo, Swiss white mice; settings: Staphylococcus aureus, SS07, in Mus musculus, sc, 168 h, read-out: ED50 (reliability limits)
Protocol: as §2, §3

## CCC(=O)O[C@H]1[C@H](O[C@@H]2[C@@H](C)[C@H](O[C@H]3C[C@@](C)(OC)[C@@H](O)[C@H](C)O3)[C@@H](C)C(=O)O[C@H](CC)[C@@](C)(O)[C@H](O)[C@@H](C)C(=O)[C@H](C)C[C@@]2(C)O)O[C@H](C)C[C@@H]1N(C)C [RV14, erythromycin-monopropionate-S-carboxymethyl cysteinate]
[1]
  MIC: 0.1 µg/mL (≈ 0.127 µM)
[2]
  MIC: 0.05 µg/mL (≈ 0.0633 µM)
[3]
  MIC: 0.025 µg/mL (≈ 0.0316 µM)
[4]
  MIC: 0.05 µg/mL (≈ 0.0633 µM)
[5]
  MIC: 0.1 µg/mL (≈ 0.127 µM)
[6]
  MIC: 1.5 µg/mL (≈ 1.9 µM)
[7]
  MIC: 0.8 µg/mL (≈ 1.01 µM)
[8]
  MIC: 0.05 µg/mL (≈ 0.0633 µM)
[9]
  MIC: 0.01 µg/mL (≈ 0.0127 µM)
[10]
  MIC: 0.025 µg/mL (≈ 0.0316 µM)
[11]
  MIC: 0.05 µg/mL (≈ 0.0633 µM)
[12]
  MIC: 0.4 µg/mL (≈ 0.506 µM)
[13]
  MIC: 0.4 µg/mL (≈ 0.506 µM)
[14]
  MIC: 3 µg/mL (≈ 3.8 µM)
[15]
  MIC: 12 µg/mL (≈ 15.2 µM)
[16]
  MIC: > 200 µg/mL
[17]
  MIC: > 200 µg/mL
[18]
  MIC: 100 µg/mL (≈ 127 µM)
[19]
  MIC: 100 µg/mL (≈ 127 µM)
[20]
  MIC: > 200 µg/mL
[21]
  MIC: 50 µg/mL (≈ 63.3 µM)
[22]
  MIC: 100 µg/mL (≈ 127 µM)
[23]
  MIC: 100 µg/mL (≈ 127 µM)
[24]
  MIC: 50 µg/mL (≈ 63.3 µM)
[25]
  MIC: 25 µg/mL (≈ 31.6 µM)
[26]
  MIC: 50 µg/mL (≈ 63.3 µM)
[27]
  MIC: > 200 µg/mL
[28]
  MIC: > 200 µg/mL
[29]
  MIC: 100 µg/mL (≈ 127 µM)
[30]
  MIC: 50 µg/mL (≈ 63.3 µM)
[31]
  MIC: 100 µg/mL (≈ 127 µM)
[32]
  MIC: 200 µg/mL (≈ 253 µM)
[33]
  MIC: 0.01 µg/mL (≈ 0.0127 µM)
[34]
  MIC: 0.05 µg/mL (≈ 0.0633 µM)
[35]
  MIC: 0.8 µg/mL (≈ 1.01 µM)
[36]
  MIC: 0.8 µg/mL (≈ 1.01 µM)
[37]
  MIC: 1.5 µg/mL (≈ 1.9 µM)
[38]
  MIC: 0.4 µg/mL (≈ 0.506 µM)
[39]
  MIC: 200 µg/mL (≈ 253 µM)
[40]
  MIC: 0.2 µg/mL (≈ 0.253 µM)
[41]
  MIC: 0.8 µg/mL (≈ 1.01 µM)
[42]; po, 14400 min
  LD50 (reliability limits): 3000 mg·kg
[43]; os, D. pneumoniae SS 23, mg/kg of erythromycin, survival after 7 days, 10080 min
  ED50 (reliability limits): 123.74 (148.77-102.92) mg/kg
[44]; 0.30 hours, 18 min
  Hematic levels in the healthy volunteer: 1.20 µg/mL
[44]; 1 hour, 60 min
  Hematic levels in the healthy volunteer: 1.78 µg/mL
[44]; 2 hours, 120 min
  Hematic levels in the healthy volunteer: 2.28 µg/mL
[44]; 3 hours, 180 min
  Hematic levels in the healthy volunteer: 1.60 µg/mL
[44]; 4 hours, 240 min
  Hematic levels in the healthy volunteer: 1.21 µg/mL
[45]; oral, 500 mg/kg
  Partial obstruction (% incidence): 13.33%
  Total obstruction, compact plug (% incidence): 26.66%
  Total obstruction, nodular mass (% incidence): 6.66%
  Total obstruction, pimply mass (% incidence): 6.66%
[46]; oral, 500 mg/kg, free non obstructed
  histological appearance of non obstructed bronchi: presence of bronchi having almost normal appearance
[46]; oral, 500 mg/kg
  histological appearance of obstructed bronchial tract: fully like that of the control animals
[47]; 0.3 h
  Hematic levels in the rat: 0.72 µg/mL
[47]; 1 h
  Hematic levels in the rat: 1.85 µg/mL
[47]; 2 h
  Hematic levels in the rat: 2.55 µg/mL
[47]; 3 h
  Hematic levels in the rat: 1.39 µg/mL
[47]; 4 h
  Hematic levels in the rat: 0.65 µg/mL
[47]; 5 h
  Hematic levels in the rat: 0.54 µg/mL
[47]; 6 h
  Hematic levels in the rat: 0.07 µg/mL
[47]; rat
  absorption by oral route (in words): absorbed by oral route in a rate practically analogous to that of erythromycin estolate

## CCOC(=O)CCC(=O)O[C@H]1[C@H](O[C@@H]2[C@@H](C)[C@H](O[C@H]3C[C@@](C)(OC)[C@@H](O)[C@H](C)O3)[C@@H](C)C(=O)O[C@H](CC)[C@@](C)(O)[C@H](O)[C@@H](C)C(=O)[C@H](C)C[C@@]2(C)O)O[C@H](C)C[C@@H]1N(C)C [erythromycin ethyl succinate, reference compound]
[48]
  ED50: 1.03 mg/kg
[43]; Streptococcus pneumoniae, SS23, in Mus musculus, sc, 168 h, read-out: ED50 (reliability limits)
  ED50: 54.2 mg/kg
[45]; i.m., 250 mg/kg
  Partial obstruction (% incidence): 20%
  Total obstruction, compact plug (% incidence): 53.33%
  Total obstruction, nodular mass (% incidence): 26.66%
  Total obstruction, pimply mass (% incidence): 13.33%
[46]; i.m., 250 mg/kg
  bronchial epithelium reaction: the bronchial epithelium reacts through a proliferation of cells, mainly cup-shaped cells
  histological appearance of obstructed bronchial tract: the bronchial obstruction is formed by abundant mucus admixed with fibrin

## CC[C@H]1OC(=O)[C@H](C)[C@@H](O[C@H]2C[C@@](C)(OC)[C@@H](O)[C@H](C)O2)[C@H](C)[C@@H](O[C@@H]2O[C@H](C)C[C@H](N(C)C)[C@H]2O)[C@](C)(O)C[C@@H](C)C(=O)[C@H](C)[C@@H](O)[C@]1(C)O [erythromycin hydrochloride, reference compound]
[42]; iv, mortality 10 days after treatment, mice, read-out: LD50 (reliability limits)
  LD50 at 240 h: 377 mg/kg
